# Test results as given in patent US20240239790A1, “7-Morpholino-1,6-Naphthyridin-5-yl Derivatives and Pharmaceutical Compositions Thereof Useful as DNA-PK Inhibitor” (adMare Therapeutics Society, priority 2021, published 2024).
# Like-named read-outs stand apart in the source and are kept apart here.
# Columns and labels:
# [1] = target: T1, DNA-PK phosphorylation at Serine 2056 (Homo sapiens, UniProt P78527); assay: Cellular Assay for Inhibition of DNA-PK Phosphorylation at Serine 2056 in FaDu cells (sandwich ELISA, neocarzinostatin); format: cell-based; settings: pSer2056 DNA-PK, Table 3
# T1 construct: FaDu cells were purchased from ATCC; host or cells: FaDu
# Procedure, shortened: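 FaDu cells pre-treated with compound (0.3% DMSO) for 1 h, then neocarzinostatin 1 μg/mL final added for 2 h to induce DSBs. Protein-normalised lysates read by sandwich ELISA for total and pSer2056 DNA-PK; % inhibition normalised between DMSO and NCS controls, IC50 from variable-slope log(inhibitor) fit.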
# [2] = system: pH2AX induction in HCT116 ATM-/- multicellular tumour spheroids; assay: Prodrug Radiation Sensitization in Multicellular Tumour Spheroids, inhibition of pH2AX induction following radiation; format: cell-based; settings: Homo sapiens, HCT-116, 20 Gy
# Method: Prodrug compounds were assayed to determine their potency in 3D multicellular spheroids in media maintained under 20% vs 5% oxygen. Multicellular tumour spheroids were grown to approximately 0.5 mm in diameter and irradiated with 20 Gy in combination with inhibitor test compounds to determine their potency using HCT 116 and FaDu cell lines. Experiments were carried out in 96 well plates containing 0.7 mls of MEM media containing 10% FBS and 10 mM glucose under 5% CO2 at 37° C. Following dilution of compounds 1:1000 from DMSO stocks, compounds were serially diluted from 10 μM down to 3.5 nM and 5-10 spheroids added. 96 well plates were constantly stirred to avoid spheroids settling during the course of the experiment. Endpoints were pDNA-PK (ser 2056) or pH2AX (ser 139) status in spheroid cryosections taken 1 or 2 hours following radiation and fixed immediately in formalin. Using tumour cell lines deficient in ATM improved the assay signal to noise and gH2AX readout. Using this assay prodrug activity could be compared in the more oxygenated outer spheroid layers versus less oxygenated hypoxic central cell layers.
# FaDu cell line = assay: Prodrug Activation in Hypoxic Stirred Tumour Cell Suspensions; settings: 10 μM, 4 hours
# Method: Prodrug compounds were assayed to determine their stability and rate of activation in stirred cell suspensions under 0.2 vs 5% oxygen. Compounds were diluted 1:1000 from DMSO stocks to 10 μM final concentration in tumour cell suspensions (1% by cell volume) in MEM media containing 10% FBS, 10 mM glucose & 3.7 g/L sodium bicarbonate. Cell lines assayed included A253, A549, Detroit562, FaDu, HCT116, HEP G2, HT29, SCC25, SCC9, SiHa & TC32. Compounds and cells were then incubated for 4 hours under constant mixing at 37° C. under 5% CO2 and either 0.2 or 5% O2. Following the incubation period cellular activation of the compounds was assayed via MeOH extraction and HPLC quantification.
# [3] = 5% O2, inner layers, read-out: Prodrug 5% O2 Inner layers EC50
# [4] = 5% O2, outer layers, read-out: Prodrug 5% O2 Outer layers EC50
# [5] = 20% O2, outer layers, read-out: Prodrug 20% O2 Outer layers EC50
SMILES,IC50 [1] [µM],"Fraction of prodrug converted to active form, Hypoxic 0.2% O2 (FaDu cell line)","Fraction of prodrug converted to active form, Oxic 5% O2 (FaDu cell line)","EC50 [2, 3] [µM]","EC50 [2, 4] [µM]","EC50 [2, 5] [µM]"
"CC(c1cnc([N+](=O)[O-])n1C)N(c1cnc2cc(N3CCOCC3)nc(OC3CCC(c4cnccn4)CC3)c2c1)S(C)(=O)=O (stereo not drawn) [LFA2043, N-[1-(3-methyl-2-nitro-imidazol-4-yl)ethyl]-N-[7-morpholino-5-(4-pyrazin-2-ylcyclohexoxy)-1,6-naphthyridin-3-yl]methanesulfonamide]",1 to 10,B (B is 0.05 to 0.15),D (D is 0 to 0.02),0.01 to 0.5,0.5 to 1,1 to 10
"CC(c1cnn(C)c1[N+](=O)[O-])N(c1cnc2cc(N3CCOCC3)nc(O[C@H]3CC[C@@H](Nc4ncc(C#N)cn4)CC3)c2c1)S(C)(=O)=O (stereo partly drawn) [LFA2052, N-[5-[4-[(5-cyanopyrimidin-2-yl)amino]cyclohexoxy]-7-morpholino-1,6-naphthyridin-3-yl]-N-[1-(1-methyl-5-nitro-pyrazol-4-yl)ethyl]methanesulfonamide]",1 to 10,B (B is 0.05 to 0.15),C (C is 0.02 to 0.05),0.01 to 0.5,0.5 to 1,1 to 10
"CC(c1cnc([N+](=O)[O-])n1C)N(c1cnc2cc(N3CCOCC3)nc(O[C@H]3CC[C@@H](Nc4nccnc4C#N)CC3)c2c1)S(C)(=O)=O (stereo partly drawn) [LFA2100, N-[5-[4-[(3-cyanopyrazin-2-yl)amino]cyclohexoxy]-7-morpholino-1,6-naphthyridin-3-yl]-N-[1-(3-methyl-2-nitro-imidazol-4-yl)ethyl]methanesulfonamide]",10 to 30,C (C is 0.02 to 0.05),D (D is 0 to 0.02),0.01 to 0.5,1 to 10,10 to 100
"Cn1c(CNS(=O)(=O)c2cnc3cc(N4CCOCC4)nc(O[C@H]4CC[C@@H](Nc5ncc(C(F)(F)F)cn5)CC4)c3c2)cnc1[N+](=O)[O-] [LFA2091, N-[(3-methyl-2-nitro-imidazol-4-yl)methyl]-7-morpholino-5-[4-[[5-(trifluoromethyl)pyrimidin-2-yl]amino]cyclohexoxy]-1,6-naphthyridine-3-sulfonamide]",10 to 30,D (D is 0 to 0.02),D (D is 0 to 0.02),10 to 100,10 to 100,10 to 100
"CC(c1cnn(C)c1[N+](=O)[O-])N(c1cnc2cc(N3CCOCC3)nc(O[C@H]3CC[C@@H](Nc4ncc(N5CCN(C)CC5)cn4)CC3)c2c1)S(C)(=O)=O (stereo partly drawn) [LFA2067, N-[1-(1-methyl-5-nitro-pyrazol-4-yl)ethyl]-N-[5-[4-[[5-(4-methylpiperazin-1-yl)pyrimidin-2-yl]amino]cyclohexoxy]-7-morpholino-1,6-naphthyridin-3-yl]methanesulfonamide]",1 to 10,B (B is 0.05 to 0.15),B (B is 0.05 to 0.15),0.01 to 0.5,0.5 to 1,1 to 10
"Cc1cc(C)nc(N[C@H]2CC[C@@H](Oc3nc(N4CCOCC4)cc4ncc(OCc5cnc([N+](=O)[O-])n5C)cc34)CC2)n1 [LFA2081, 4,6-dimethyl-N-[4-[[3-[(3-methyl-2-nitro-imidazol-4-yl)methoxy]-7-morpholino-1,6-naphthyridin-5-yl]oxy]cyclohexyl]pyrimidin-2-amine]",10 to 30,B (B is 0.05 to 0.15),B (B is 0.05 to 0.15),0.5 to 1,1 to 10,1 to 10
"CN(C)CCOc1cnc(N[C@H]2CC[C@@H](Oc3nc(N4CCOCC4)cc4ncc(OCc5cnc([N+](=O)[O-])n5C)cc34)CC2)nc1 [LFA2088, 5-[2-(dimethylamino)ethoxy]-N-[4-[[3-[(3-methyl-2-nitro-imidazol-4-yl)methoxy]-7-morpholino-1,6-naphthyridin-5-yl]oxy]cyclohexyl]pyrimidin-2-amine]",1 to 10,B (B is 0.05 to 0.15),D (D is 0 to 0.02),1 to 10,1 to 10,1 to 10

# Second part, led by results:
IC50 [1] [µM],"Fraction of prodrug converted to active form, Hypoxic 0.2% O2 (FaDu cell line)","Fraction of prodrug converted to active form, Oxic 5% O2 (FaDu cell line)",SMILES,"EC50 [2, 3] [µM]","EC50 [2, 4] [µM]","EC50 [2, 5] [µM]"
10 to 30,D (D is 0 to 0.02),D (D is 0 to 0.02),"CC(c1cnc([N+](=O)[O-])n1C)N(c1cnc2cc(N3CCOCC3)nc(OC3CCC(Nc4ncc(N5CCN(CC(F)(F)F)CC5)cn4)CC3)c2c1)S(C)(=O)=O (stereo not drawn) [LFA2046, N-[1-(3-methyl-2-nitro-imidazol-4-yl)ethyl]-N-[7-morpholino-5-[4-[[5-[4-(2,2,2-trifluoroethyl)piperazin-1-yl]pyrimidin-2-yl]amino]cyclohexoxy]-1,6-naphthyridin-3-yl]methanesulfonamide]",0.5 to 1,1 to 10,1 to 10
10 to 30,B (B is 0.05 to 0.15),D (D is 0 to 0.02),"CC(c1cnc([N+](=O)[O-])n1C)N(c1cnc2cc(N3CCOCC3)nc(O[C@H]3CC[C@@H](Nc4ncc(OCCN5CCOCC5)cn4)CC3)c2c1)S(C)(=O)=O (stereo partly drawn) [LFA2054, N-[1-(3-methyl-2-nitro-imidazol-4-yl)ethyl]-N-[7-morpholino-5-[4-[[5-(2-morpholinoethoxy)pyrimidin-2-yl]amino]cyclohexoxy]-1,6-naphthyridin-3-yl]methanesulfonamide]",0.01 to 0.5,0.5 to 1,10 to 100
10 to 30,C (C is 0.02 to 0.05),D (D is 0 to 0.02),"Cn1c(COc2cnc3cc(N4CCOCC4)nc(O[C@H]4CC[C@@H](Nc5cncc(C(F)(F)F)n5)CC4)c3c2)cnc1[N+](=O)[O-] [LFA2097, N-[4-[[3-[(3-methyl-2-nitro-imidazol-4-yl)methoxy]-7-morpholino-1,6-naphthyridin-5-yl]oxy]cyclohexyl]-6-(trifluoromethyl)pyrazin-2-amine]",10 to 100,10 to 100,10 to 100
1 to 10,B (B is 0.05 to 0.15),D (D is 0 to 0.02),"Cn1c(CN(c2cnc3cc(N4CCOCC4)nc(O[C@H]4CC[C@@H](Nc5cnc(C#N)cn5)CC4)c3c2)S(C)(=O)=O)cnc1[N+](=O)[O-] [LFA2103, N-[5-[4-[(5-cyanopyrazin-2-yl)amino]cyclohexoxy]-7-morpholino-1,6-naphthyridin-3-yl]-N-[(3-methyl-2-nitro-imidazol-4-yl)methyl]methanesulfonamide]",0.01 to 0.5,1 to 10,10 to 100
10 to 30,B (B is 0.05 to 0.15),B (B is 0.05 to 0.15),"Cc1cc(C#N)nc(N[C@H]2CC[C@@H](Oc3nc(N4CCOCC4)cc4ncc(OCc5cnc([N+](=O)[O-])n5C)cc34)CC2)n1 [LFA2093, 6-methyl-2-[[4-[[3-[(3-methyl-2-nitro-imidazol-4-yl)methoxy]-7-morpholino-1,6-naphthyridin-5-yl]oxy]cyclohexyl]amino]pyrimidine-4-carbonitrile]",1 to 10,1 to 10,1 to 10
